# Laboratory results taken from patent publication US20260263425A1, “USE OF COMPOSITION CONTAINING CANDESARTAN OR AZILSARTAN” (GACHON UNIVERSITY OF INDUSTRY-ACADEMIC COOPERATION …, priority 2023, published 2026).
# Experiments:
# [1] = test system: HepG2 cells; experiment: Insulin-stimulated phosphorylation of Akt and downstream molecules in palmitic acid-treated HepG2 cells (immunoblot); type: cell-based, Human; conditions: HepG2, 0.5 mM palmitic acid 16 h, ARB 5, 10, 20 μM; dose-dependent
# Procedure: Tissues and cells were lysed using a modified RIPA buffer (50 mM Tris-HCl pH 7.4, 1% Triton X-100, 150 mM NaCl, 1 mM EDTA; Cell Signaling Technology) freshly supplemented with 1 mM Na3VO4, […], and protease inhibitor cocktail (Complete Mini, Roche). Equal amounts of proteins were separated on 4-12% gels and electrophoretically transferred to polyvinylidene difluoride (PVDF) membranes. Immunoblots were visualized with horseradish peroxidase-conjugated secondary antibodies and enhanced chemiluminescence kits (ECL kits; GE Healthcare Life Sciences) using a charge-coupled device camera (Amersham ImageQuant 800). Specifically, nine FDA-approved ARBs (losartan, eprosartan, fimasartan, irbesartan, olmesartan, telmisartan, valsartan, azilsartan, and candesartan) commonly prescribed for the treatment of hypertension in human patients were administered to HepG2 cells at various concentrations (5 μM, 10 μM, and 20 μM) in combination with 0.5 mM palmitic acid for 16 hours. Then, the insulin-stimulated phosphorylation of the key insulin signaling molecule Akt and its downstream signaling molecules GSK3β and FOXO3 was investigated. The results of Example 1 indicate that azilsartan and candesartan have beneficial off-target effects on insulin signaling and intracellular Ca^2+ homeostasis that are distinct from their known effects as angiotensin receptor blockers. […]
# [2] = test system: HepG2 cells; experiment: Intracellular Ca2+ level and lipid accumulation in palmitic acid-treated HepG2 cells (confocal microscopy, fluorescent dyes); type: cell-based, Human; conditions: for lipid accumulation: palmitic acid-treated HepG2, BODIPY; for fluorescence intensity for intracellular Ca2+: palmitic acid-treated HepG2, Calbryte 630 AM
# Procedure: Subsequently, to determine whether ARBs can regulate intracellular Ca^2+ levels and lipid accumulation in HepG2 cells treated with palmitic acid, the effects of ARBs were evaluated using confocal microscopy and the fluorescent dyes Calbryte 630 AM (for intracellular Ca^2+) and BODIPY (for lipids).
# Specifically, for intracellular Ca^2+ concentration and lipid accumulation, HepG2 cells were plated on slide glasses, treated with 0.5 mM palmitic acid for 16 hours, and incubated with 4 μM Fura-2-AM (Teflabs), […] Calbryte 630 AM, or […] BODIPY in PBS for 30 minutes at 37° C. in the dark. The cells were then washed with PBS for 10 minutes. Subsequently, the cells were counterstained with 4,6-diamidino-2-phenylindole (DAPI) to visualize nuclei. After mounting, the stained slides were imaged using a Zeiss LSM 700 or Zeiss LSM 980 laser scanning confocal microscope (Carl Zeiss) and analyzed using ZEN 2010 Software (Carl Zeiss). Intracellular Ca^2+ was quantified from the microscopic images using the NIH ImageJ software (https://imagej.nih.gov/ij/, 1997-2017). […]
# [3] = test system: AKT PH domain; experiment: Insulin-stimulated membrane localization of AKT PH domain in palmitic acid-treated HepG2 cells; type: cell-based, Human; conditions: 100 nM insulin 15 min, AKT PH mCherry
# Procedure: One mechanism of insulin resistance is that, in the state of obesity and diabetes, an increase in the concentration of calcium in the cytoplasm leads to calcium binding to PI(3, 4, 5)P3 present in the cell membrane, generating Ca^2+-PI(3, 4, 5)P3, which inhibits binding to the PH domain of AKT and suppresses AKT protein activity, thereby inducing insulin resistance. Accordingly, it was evaluated whether azilsartan and candesartan, which were shown in the above examples to attenuate palmitic acid-induced intracellular Ca^2+ overload, regulate the intracellular localization of the AKT PH domain, which functions as a biosensor for PI(3, 4, 5)P3.
# (§1) Specifically, CHO cells or HepG2 cells were transfected with cDNA encoding hAKT PHD (residues 1 to 144) using Lipofectamine (Life Technologies). To monitor the intracellular localization of endogenous AKT, liver sections were antigen activated with 10 mM Tris/HCl (pH 9.0) for 20 minutes, treated with serum-free protein blocking solution (DAKO) for 30 minutes, and permeabilized with 0.5% Tween 20 for 15 minutes. The liver sections were then incubated with anti-AKT PHD antibody (SKB1, #05-591, Sigma-Aldrich) and FITC-conjugated secondary antibody. After mounting, the liver sections were imaged with an LSM 980 laser scanning confocal microscope (Carl Zeiss), and the images were analyzed using ZEN software (Carl Zeiss).
# When administering azilsartan or candesartan to cells, the impairment induced by palmitic acid was recovered.
# [4] = test system: AKT PH domain; experiment: Insulin-stimulated membrane localization of AKT PH domain in PMA-treated CHO-IR cells; type: cell-based, Chinese hamster
# Procedure: as §1, with “Zeiss). Similarly, in phorbol myristate acetate (PMA)-treated Chinese hamster ovary-insulin receptor (CHO-IR) cells, it was confirmed that insulin-stimulated membrane localization of the AKT PH domain was rescued by treatment with azilsartan or candesartan (FIG. 3b).” for “Zeiss).”
# [5] = test system: HFD-fed mice; experiment: Postprandial phosphorylation of AKT and downstream substrates in HFD-fed mice; type: in vivo; conditions: fasted overnight, re-fed HFD 4 hours
# Procedure: Tissues and cells were lysed using a modified RIPA buffer (50 mM Tris-HCl pH 7.4, 1% Triton X-100, 150 mM NaCl, 1 mM EDTA; Cell Signaling Technology) freshly supplemented with 1 mM Na3VO4, […], and protease inhibitor cocktail (Complete Mini, Roche). Equal amounts of proteins were separated on 4-12% gels and electrophoretically transferred to polyvinylidene difluoride (PVDF) membranes. Immunoblots were visualized with horseradish peroxidase-conjugated secondary antibodies and enhanced chemiluminescence kits (ECL kits; GE Healthcare Life Sciences) using a charge-coupled device camera (Amersham ImageQuant 800). To elucidate the role of candesartan on insulin signaling in vivo, mice were fasted overnight and then re-fed an HFD for 4 hours, and postprandial phosphorylation of AKT and its downstream signaling substrates FOXO1A, FOXO3A, GSK3B, and AS160 was measured.
Structure (SMILES),"insulin-stimulated phosphorylation of Akt, GSK3B, and FOXO3 [1]",lipid accumulation [2],fluorescence intensity for intracellular Ca2+ [2],palmitic acid-induced impairment of insulin-stimulated membrane localization of the AKT PH domain [3],insulin-stimulated membrane localization of the AKT PH domain [4],"postprandial phosphorylation of AKT, FOXO1A, FOXO3A, GSK3B, and AS160, increase compared to the control group [5]"
CCOc1nc2cccc(C(=O)O)c2n1Cc1ccc(-c2ccccc2-c2nc(=O)o[nH]2)cc1 [azilsartan],completely restored,significantly reduced,significantly reduced,recovered,rescued,–
CCOc1nc2cccc(C(=O)O)c2n1Cc1ccc(-c2ccccc2-c2nnn[nH]2)cc1 [candesartan],–,–,–,–,–,4- to 10 fold
CCCCc1ncc(/C=C(\Cc2cccs2)C(=O)O)n1Cc1ccc(C(=O)O)cc1 [eprosartan],–,did not significantly affect,did not significantly affect,did not rescue,–,–
CCCCC1=NC2(CCCC2)C(=O)N1Cc1ccc(-c2ccccc2-c2nnn[nH]2)cc1 [irbesartan],–,did not significantly affect,did not significantly affect,did not rescue,–,–
CCCCc1nc(Cl)c(CO)n1Cc1ccc(-c2ccccc2-c2nn[nH]n2)cc1 [losartan],–,did not significantly affect,did not significantly affect,did not rescue,–,–
CCCc1nc2c(C)cc(-c3nc4ccccc4n3C)cc2n1Cc1ccc(-c2ccccc2C(=O)O)cc1 [telmisartan],–,did not significantly affect,did not significantly affect,did not rescue,–,–
